Reference: US5475009A, “1, 2-dialkoxyethanes as 5-lipoxygenase inhibitors” (Abbott Laboratories, priority 1994, dated 1995)

Biological target: T1, 5-Lipoxygenase (Homo sapiens, UniProt P09917)
T1 construct: endogenous in cells; host or cells: human heparinized whole blood (its leukocytes)
T1 sequence (P09917 1-674): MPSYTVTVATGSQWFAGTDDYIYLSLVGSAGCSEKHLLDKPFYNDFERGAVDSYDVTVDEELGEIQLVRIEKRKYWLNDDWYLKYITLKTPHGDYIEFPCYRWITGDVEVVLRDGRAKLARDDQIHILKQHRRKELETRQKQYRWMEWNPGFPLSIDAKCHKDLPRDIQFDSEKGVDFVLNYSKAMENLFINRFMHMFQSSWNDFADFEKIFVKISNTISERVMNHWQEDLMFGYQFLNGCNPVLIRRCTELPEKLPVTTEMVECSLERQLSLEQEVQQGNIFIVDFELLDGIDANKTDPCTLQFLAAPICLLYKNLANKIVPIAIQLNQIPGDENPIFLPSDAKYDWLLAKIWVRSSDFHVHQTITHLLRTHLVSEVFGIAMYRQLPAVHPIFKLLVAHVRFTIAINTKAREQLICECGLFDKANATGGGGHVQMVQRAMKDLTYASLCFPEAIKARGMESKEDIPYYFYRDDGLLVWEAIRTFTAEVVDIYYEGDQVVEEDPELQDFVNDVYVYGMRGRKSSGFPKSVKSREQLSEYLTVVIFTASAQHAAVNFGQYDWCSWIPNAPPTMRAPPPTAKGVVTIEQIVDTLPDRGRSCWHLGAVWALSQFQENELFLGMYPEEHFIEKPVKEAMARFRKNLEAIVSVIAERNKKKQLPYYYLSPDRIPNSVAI
Assay: Inhibition of calcium ionophore A23187-induced LTB4 biosynthesis in human whole blood (radioimmunoassay)
Type: cell-based
Conditions: human heparinized whole blood, 15 min preincubation, A23187 8.3 μM, 30 min, read-out: Inhibition of stimulated LTB4 formation in human whole blood (IC50 (10^-6 M)); for inhibition at 0.2 µM: @ 0.20 μM
Description: Inhibition of leukotriene biosynthesis was evaluated in an assay, involving calcium ionophore-induced LTB4 biosynthesis expressed human whole blood. Human heparinized whole blood was preincubated with test compounds or vehicle for 15 min at 37° C. followed by calcium ionophore A23187 challenge (final concentration of 8.3 μM) and the reaction terminated after 30 min by adding two volumes of methanol containing prostaglandin B2 as an internal recovery standard. The methanol extract was analyzed for LTB4 using a commercially available radioimmunoassay.
In Vitro Inhibitory Potencies of Compounds of this Invention
Against 5-Lipoxygenase from Stimulated LTB4
Formation in Human Whole Blood

Row | Structure (SMILES) | inhibition at 0.2 µM [%] | inhibition at 0.78 µM [%] | further results
1 | CO/N=C(\c1cc(F)cc(OCc2ccc3ccccc3c2)c1)[C@H]1COC(C)(C)O1 [4(E oxime), E-(4S)-O-methyl-2,2-dimethyl-4-[(5-fluoro-3-(napth-2-ylmethyloxy)phenyl)oximinomethyl]-1,3-dioxolane] | 100 |  | 
2 | CO/N=C(/c1cc(F)cc(OCc2ccc3ccccc3c2)c1)[C@H]1COC(C)(C)O1 [4(Z oxime), Z-(4S)-O-methyl-2,2-dimethyl-4-[(5-fluoro-3-(napth-2-ylmethyloxy)phenyl)oximinomethyl]-1,3-dioxolane] |  | 78 | 
3 | CO/N=C(\c1cc(F)cc(OCc2ccc3c(ccc(=O)n3C)c2)c1)[C@H]1COC(C)(C)O1 [Example 5, E-(4S)-O-methyl-2,2-dimethyl-4-[(5-fluoro-3-(1,2-dihydro-1-methyl-2-oxoquinoline-6-ylmethyloxy)phenyl)oximinomethyl]-1,3-dioxolane] |  |  | inhibition at 0.1 µM (@ 0.10 μM): 95%
4 | CO/N=C(/c1cc(F)cc(OCc2ccc3c(ccc(=O)n3C)c2)c1)[C@H]1COC(C)(C)O1 [Example 6, Z-(4S)-O-methyl-2,2-dimethyl-4-[(5-fluoro-3-(1,2-dihydro-1-methyl-2-oxoquinoline-6-ylmethyloxy)phenyl)oximinomethyl]-1,3-dioxolane] | 83 |  | 
5 | COC[C@@H](OC)[C@@H](OC)c1cc(F)cc(OCc2ccc3ccccc3c2)c1 [Example 7, anti-(1S, 2R)-1-[(5-fluoro-3-(napth-2-ylmethyloxy)phenyl)]-1,2,3-trimethoxypropane] | 95 |  | 
6 | COC[C@@H](OC)[C@H](OC)c1cc(F)cc(OCc2ccc3ccccc3c2)c1 [Example 8, syn-(1R, 2R)-1-[(5-fluoro-3-(napth-2-ylmethyloxy)phenyl)]-1,2,3-trimethoxypropane] |  | 92 | 
